One assay has as its target T1, p110α (Homo sapiens, UniProt P42336).
T1 construct: His-tag; made in house; host or cells: Sf9 insect cells (baculovirus)
Put plainly: Biochemical PI3K inhibition assay, p110α. Conditions: for IC50: 10 μM ATP, two hours; for effect of substitution on PI3Kα potency/selectivity (in words): SAR discussion. Here is the method: PIK3CD was generously provided by Novartis Pharmaceuticals. […] Sf9 cells were lysed in a buffer containing 50 mM sodium phosphate, pH 8.0, 400 mM NaCl, 5% glycerol, 1% Triton X-100, 10 mM 2-mercaptoethanol, 1 mM orthovanadate, 10 mM imidazole, and sonicated on ice for 1 minute. Proteins were purified by adding Ni-NTA Superflow beads (Qiagen, Valencia, CA, USA) to the lysate and subsequent rolling for 30 min at 4°C. Beads were washed twice with 50 mM phosphate buffer, pH 8.0, 0.5 M NaCl, 50 mM Imidazole, 2 mM DTT and eluted in the same buffer but with 200 mM imidazole. Purified PI3K's were mixed 1:1 with glycerol and stored at -20°C.
J-series inhibitors were dissolved, serial diluted in DMSO and deposited into 96 well plates at a final DMSO concentration of 1%. We used a novel assay to determine their potency and selectivity. […] Reactions were timed after the addition of 10 μM ATP with 40 μCi/ml γ-32P-ATP (PerkinElmer, Waltham, MA, USA) and 2 mM MgCl2 (all final concentrations). The reactions were terminated after two hours by the addition of 2 N HCl and the lipids extracted with 1:1 MetOH/Chloroform. Radio-labeled phosphatidyl-inositol-3-phosphate in the extracted organic fraction was quantified after the addition of Microscint O (PerkinElmer) using a TopCount 96 well plate scintillation counter (PerkinElmer). IC50 concentrations and inhibition curves were calculated using Prism 5 (GraphPad Software, La Jolla, CA).

The next assay deals with T2, p110β (Homo sapiens, UniProt P42338).
T2 construct: His-tag; made in house; host or cells: Sf9 insect cells (baculovirus)
T2 sequence (P42338 whole entry): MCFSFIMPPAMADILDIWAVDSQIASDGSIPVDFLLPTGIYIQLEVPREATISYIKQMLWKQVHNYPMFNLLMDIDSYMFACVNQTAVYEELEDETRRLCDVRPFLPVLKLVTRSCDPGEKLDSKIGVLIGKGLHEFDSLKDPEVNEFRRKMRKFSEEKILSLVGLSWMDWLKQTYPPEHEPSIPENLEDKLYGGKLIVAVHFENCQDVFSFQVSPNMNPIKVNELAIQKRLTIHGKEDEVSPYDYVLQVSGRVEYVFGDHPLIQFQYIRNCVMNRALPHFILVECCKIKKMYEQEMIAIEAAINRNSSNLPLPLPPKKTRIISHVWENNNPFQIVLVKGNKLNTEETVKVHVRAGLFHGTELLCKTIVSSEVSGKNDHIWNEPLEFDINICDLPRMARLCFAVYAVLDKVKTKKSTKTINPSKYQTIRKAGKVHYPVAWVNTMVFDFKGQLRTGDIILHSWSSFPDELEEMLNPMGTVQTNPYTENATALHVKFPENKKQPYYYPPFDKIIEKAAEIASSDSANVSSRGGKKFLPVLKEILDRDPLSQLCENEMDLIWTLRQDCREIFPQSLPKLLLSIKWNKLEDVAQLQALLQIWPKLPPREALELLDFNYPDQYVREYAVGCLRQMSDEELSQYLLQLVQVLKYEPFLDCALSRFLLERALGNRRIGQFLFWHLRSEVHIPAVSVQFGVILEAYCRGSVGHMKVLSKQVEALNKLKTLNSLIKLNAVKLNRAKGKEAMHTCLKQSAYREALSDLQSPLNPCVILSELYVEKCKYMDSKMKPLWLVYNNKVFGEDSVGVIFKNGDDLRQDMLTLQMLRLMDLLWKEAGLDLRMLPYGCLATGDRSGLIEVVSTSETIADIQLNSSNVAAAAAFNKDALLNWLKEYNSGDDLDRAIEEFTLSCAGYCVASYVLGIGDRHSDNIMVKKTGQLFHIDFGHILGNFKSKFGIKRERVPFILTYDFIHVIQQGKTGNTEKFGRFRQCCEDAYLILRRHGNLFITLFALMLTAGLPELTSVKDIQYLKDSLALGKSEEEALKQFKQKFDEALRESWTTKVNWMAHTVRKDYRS
T2 sequence (P27986 322-600 partner limits assumed): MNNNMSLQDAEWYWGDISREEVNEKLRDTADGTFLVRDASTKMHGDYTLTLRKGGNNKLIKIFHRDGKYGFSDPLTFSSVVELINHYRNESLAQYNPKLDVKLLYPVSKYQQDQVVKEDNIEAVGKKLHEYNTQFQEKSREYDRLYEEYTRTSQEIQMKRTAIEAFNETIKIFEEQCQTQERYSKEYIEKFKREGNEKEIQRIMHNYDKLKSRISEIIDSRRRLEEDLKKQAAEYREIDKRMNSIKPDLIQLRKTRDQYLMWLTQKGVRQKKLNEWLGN
Put plainly: Biochemical PI3K inhibition assay, p110β. Conditions: 10 μM ATP, two hours. The source says:
(§1) cDNA clones of PIK3CA, PIK3CB and PIK3CG were obtained from Origene (Rockville, MD, USA). PIK3CD was generously provided by Novartis Pharmaceuticals. The cDNA clones were sub-cloned into pFastBac His-Tag (Invitrogen, Carlsbad, CA, USA) and baculovirus clones were generated by the Bac-to-Bac expression system (Invitrogen). p110α, p110β and p110δ were co-expressed in Sf9 insect cells (Invitrogen) with a nSH2-iSH2 fragment of the regulatory subunit p85 comprising AA residues 322 to 600 [4]. p110γ was expressed without a regulatory subunit. Sf9 cells were lysed in a buffer containing 50 mM sodium phosphate, pH 8.0, 400 mM NaCl, 5% glycerol, 1% Triton X-100, 10 mM 2-mercaptoethanol, 1 mM orthovanadate, 10 mM imidazole, and sonicated on ice for 1 minute. Proteins were purified by adding Ni-NTA Superflow beads (Qiagen, Valencia, CA, USA) to the lysate and subsequent rolling for 30 min at 4°C. Beads were washed twice with 50 mM phosphate buffer, pH 8.0, 0.5 M NaCl, 50 mM Imidazole, 2 mM DTT and eluted in the same buffer but with 200 mM imidazole. Purified PI3K's were mixed 1:1 with glycerol and stored at -20°C.
(§2) J-series inhibitors were dissolved, serial diluted in DMSO and deposited into 96 well plates at a final DMSO concentration of 1%. We used a novel assay to determine their potency and selectivity. In brief, micelles of 2.5 μg L-a-Phosphatidylinositol and 2.5 μg 1,2-Diacyl-sn-glycero-3-phospho-L-serine were formed by sonication, mixed with the individual PI3K isoforms and added to the drug dilutions in a reaction buffer containing 10 mM HEPES, 25 mM NaCl, 0.125 μg/μl BSA, and 2 mM BME (final concentrations). Reactions were timed after the addition of 10 μM ATP with 40 μCi/ml γ-32P-ATP (PerkinElmer, Waltham, MA, USA) and 2 mM MgCl2 (all final concentrations). The reactions were terminated after two hours by the addition of 2 N HCl and the lipids extracted with 1:1 MetOH/Chloroform. Radio-labeled phosphatidyl-inositol-3-phosphate in the extracted organic fraction was quantified after the addition of Microscint O (PerkinElmer) using a TopCount 96 well plate scintillation counter (PerkinElmer). IC50 concentrations and inhibition curves were calculated using Prism 5 (GraphPad Software, La Jolla, CA).

The target of a further assay is T3, p110γ (Homo sapiens, UniProt P48736).
T3 construct: His-tag; made in house; host or cells: Sf9 insect cells (baculovirus)
T3 sequence (P48736 whole entry): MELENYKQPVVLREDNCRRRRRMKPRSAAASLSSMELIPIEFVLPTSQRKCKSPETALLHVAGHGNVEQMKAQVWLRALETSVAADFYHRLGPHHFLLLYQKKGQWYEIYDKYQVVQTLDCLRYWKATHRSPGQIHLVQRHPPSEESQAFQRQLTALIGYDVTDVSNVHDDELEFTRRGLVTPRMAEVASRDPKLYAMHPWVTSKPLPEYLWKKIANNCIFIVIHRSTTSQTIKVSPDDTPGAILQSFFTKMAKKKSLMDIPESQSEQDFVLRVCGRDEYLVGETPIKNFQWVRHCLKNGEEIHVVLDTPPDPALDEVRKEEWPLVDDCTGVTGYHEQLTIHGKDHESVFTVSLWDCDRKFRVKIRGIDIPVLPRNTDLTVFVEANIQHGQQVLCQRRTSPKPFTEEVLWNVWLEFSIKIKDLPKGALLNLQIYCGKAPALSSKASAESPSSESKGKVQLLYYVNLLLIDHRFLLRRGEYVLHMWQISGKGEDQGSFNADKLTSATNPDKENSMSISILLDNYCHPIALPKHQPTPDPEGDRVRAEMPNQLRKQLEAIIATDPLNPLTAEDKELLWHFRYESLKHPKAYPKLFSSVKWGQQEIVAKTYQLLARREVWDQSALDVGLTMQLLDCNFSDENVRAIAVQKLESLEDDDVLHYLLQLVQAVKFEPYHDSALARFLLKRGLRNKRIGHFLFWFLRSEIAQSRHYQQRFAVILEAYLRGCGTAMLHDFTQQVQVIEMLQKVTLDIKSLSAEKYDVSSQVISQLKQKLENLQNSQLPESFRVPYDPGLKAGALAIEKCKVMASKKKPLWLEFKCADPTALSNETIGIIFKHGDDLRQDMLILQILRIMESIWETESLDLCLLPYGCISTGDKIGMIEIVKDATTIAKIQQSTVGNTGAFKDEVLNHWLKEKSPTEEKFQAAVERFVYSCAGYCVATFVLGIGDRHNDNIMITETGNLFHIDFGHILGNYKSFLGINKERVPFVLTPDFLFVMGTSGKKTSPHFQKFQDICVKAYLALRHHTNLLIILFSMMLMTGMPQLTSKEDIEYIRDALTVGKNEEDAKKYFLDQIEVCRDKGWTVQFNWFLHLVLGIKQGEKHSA
Nature of the assay: Biochemical PI3K inhibition assay, p110γ. Conditions: 10 μM ATP, two hours; no regulatory subunit.
From the text: as §1, §2

The target in a further assay is T4, p110δ (Homo sapiens, UniProt O00329).
T4 construct: His-tag; made in house; host or cells: Sf9 insect cells (baculovirus)
T4 sequence (O00329 whole entry): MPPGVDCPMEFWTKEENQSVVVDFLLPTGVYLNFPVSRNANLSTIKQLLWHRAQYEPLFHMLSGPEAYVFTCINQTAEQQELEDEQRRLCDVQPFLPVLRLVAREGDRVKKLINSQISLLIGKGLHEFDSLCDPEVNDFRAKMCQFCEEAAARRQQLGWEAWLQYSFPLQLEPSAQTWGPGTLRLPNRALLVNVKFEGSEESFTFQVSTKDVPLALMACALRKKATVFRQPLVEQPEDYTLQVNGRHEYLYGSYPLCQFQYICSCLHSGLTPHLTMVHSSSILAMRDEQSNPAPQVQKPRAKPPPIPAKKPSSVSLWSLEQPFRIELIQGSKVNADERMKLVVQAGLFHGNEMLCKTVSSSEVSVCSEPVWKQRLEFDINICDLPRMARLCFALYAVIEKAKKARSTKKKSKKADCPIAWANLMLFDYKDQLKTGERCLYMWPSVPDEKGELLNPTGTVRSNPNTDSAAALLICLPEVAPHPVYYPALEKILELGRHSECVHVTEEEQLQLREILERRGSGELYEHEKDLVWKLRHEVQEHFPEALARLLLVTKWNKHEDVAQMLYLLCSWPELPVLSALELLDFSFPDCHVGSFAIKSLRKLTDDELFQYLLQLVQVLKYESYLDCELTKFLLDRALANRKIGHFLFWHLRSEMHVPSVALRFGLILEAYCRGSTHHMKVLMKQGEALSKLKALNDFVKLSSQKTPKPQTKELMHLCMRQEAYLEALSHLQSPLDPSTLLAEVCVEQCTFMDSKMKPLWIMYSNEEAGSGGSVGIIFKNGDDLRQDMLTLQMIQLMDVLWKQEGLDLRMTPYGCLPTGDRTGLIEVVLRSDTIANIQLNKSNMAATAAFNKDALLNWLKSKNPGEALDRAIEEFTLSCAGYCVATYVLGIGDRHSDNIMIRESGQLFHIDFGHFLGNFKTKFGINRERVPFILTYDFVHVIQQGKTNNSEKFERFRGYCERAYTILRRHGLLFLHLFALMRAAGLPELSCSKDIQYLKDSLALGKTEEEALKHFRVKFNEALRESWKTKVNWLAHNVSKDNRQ
T4 sequence (P27986 322-600 partner limits assumed): as the sequence (P27986 322-600 partner limits assumed) above
Nature of the assay: Biochemical PI3K inhibition assay, p110δ. The conditions noted are these: 10 μM ATP, two hours.
From the text: as §1, §2

Counter-ions that a name gives are not always drawn.

T1 sequence (P42336 whole entry): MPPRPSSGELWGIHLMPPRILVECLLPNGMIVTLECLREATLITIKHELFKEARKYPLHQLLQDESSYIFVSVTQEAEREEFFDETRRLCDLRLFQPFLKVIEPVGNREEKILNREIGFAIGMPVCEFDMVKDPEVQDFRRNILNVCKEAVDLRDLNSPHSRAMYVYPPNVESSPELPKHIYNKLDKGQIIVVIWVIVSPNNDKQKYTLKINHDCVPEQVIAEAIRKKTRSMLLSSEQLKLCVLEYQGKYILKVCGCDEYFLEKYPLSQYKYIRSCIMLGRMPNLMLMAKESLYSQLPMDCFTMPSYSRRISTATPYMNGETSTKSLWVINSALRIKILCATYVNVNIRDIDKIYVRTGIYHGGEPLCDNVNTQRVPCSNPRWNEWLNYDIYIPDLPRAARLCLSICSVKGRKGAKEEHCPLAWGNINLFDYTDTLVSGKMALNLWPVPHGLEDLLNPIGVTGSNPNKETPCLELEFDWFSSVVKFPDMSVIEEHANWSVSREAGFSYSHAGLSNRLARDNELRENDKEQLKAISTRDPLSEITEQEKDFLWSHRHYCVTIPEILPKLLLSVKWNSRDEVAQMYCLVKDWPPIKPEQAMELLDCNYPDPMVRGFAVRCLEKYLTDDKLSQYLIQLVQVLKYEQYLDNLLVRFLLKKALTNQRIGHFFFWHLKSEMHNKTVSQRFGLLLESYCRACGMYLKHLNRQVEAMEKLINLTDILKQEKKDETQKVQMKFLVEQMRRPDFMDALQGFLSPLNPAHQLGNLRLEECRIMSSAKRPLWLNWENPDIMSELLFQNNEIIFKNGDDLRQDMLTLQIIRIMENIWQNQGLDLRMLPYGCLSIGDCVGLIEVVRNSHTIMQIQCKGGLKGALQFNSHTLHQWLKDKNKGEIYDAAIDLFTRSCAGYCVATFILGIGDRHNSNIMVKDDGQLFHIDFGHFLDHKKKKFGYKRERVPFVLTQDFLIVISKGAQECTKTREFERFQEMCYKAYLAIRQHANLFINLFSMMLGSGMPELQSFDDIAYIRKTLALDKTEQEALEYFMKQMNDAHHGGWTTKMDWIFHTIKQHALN
T1 sequence (P27986 322-600 partner limits assumed): as the sequence (P27986 322-600 partner limits assumed) above

Turning to `CCN(/N=C/c1cnc2ccc(Br)cn12)S(=O)(=O)c1cc([N+](=O)[O-])c(NC(C)C(=O)O)cc1C` (stereo not drawn) [J160], the IC50 – broadly, the concentration that inhibits the measured activity by half – worked out at 11 nM against p110α, 8200 nM against p110β, 140 nM against p110γ and 230 nM on p110δ.
As to `Cc1ccc([N+](=O)[O-])cc1S(=O)(=O)N(/N=C/c1cnc2ccc(Br)cn12)C(C)C` [J55], the 50% inhibitory concentration (IC50) was determined as 93 nM against p110α, 2420 nM against p110β, 3340 nM on p110γ and 760 nM on p110δ. On p110α (compared to J32), the “drop/decrease in inhibitory activity for PI3Kα” value was in the range of 6 to 49 fold.
As to `Cc1ccc([N+](=O)[O-])cc1S(=O)(=O)N(CC(C)C)/N=C/c1cnc2ccc(Br)cn12` [J46], the IC50 on p110α stood at 309 nM; on p110β it was 2970 nM; against p110γ, 1750 nM; at p110δ, 485 nM. In addition, the “drop/decrease in inhibitory activity for PI3Kα” value on p110α (compared to J32) is on record as 6 to 49 fold.
For `CCN(/N=C/c1cnc2ccc(Br)cn12)S(=O)(=O)c1cc(C(=O)O)ccc1C` [J100], the IC50 on p110α is 121 nM; on p110β, 2000 nM; against p110γ, 5120 nM; on p110δ, 173 nM. The “effect of substitution on PI3Kα potency/selectivity (in words)” value at p110α was “impaired potency”.
Regarding `CCN(/N=C/c1cnc2ccc(Br)cn12)S(=O)(=O)c1cc(N)ccc1C` [J44], the IC50 against p110α was determined as 4400 nM; against p110β it was 21000 nM; against p110γ it was 30000 nM; against p110δ, 28000 nM. Moreover, the “effect of substitution on PI3Kα potency/selectivity (in words)” value on p110α is listed as “impaired potency”.
In the case of `CCN(/N=C/c1cnc2ccc(Br)cn12)S(=O)(=O)c1cc(S(C)(=O)=O)ccc1C` [J41], the IC50 came out at 23200 nM against p110α, 235000 nM against p110β, 253000 nM against p110γ and 3550 nM against p110δ. The “effect of substitution on PI3Kα potency/selectivity (in words)” value on p110α is listed as “impaired potency”.
Take `CCN(/N=C/c1cnc2ccc(Br)cn12)S(=O)(=O)c1cc([N+](=O)[O-])ccc1Cl` [J101]: the IC50 stood at 22 nM against p110α, 936 nM against p110β, 812 nM against p110γ and 266 nM at p110δ. Also, the “effect of substitution on PI3Kα potency/selectivity (in words)” value on p110α was “maintain potency and isoform selectivity”.
Turning to `CCN(/N=C/c1cnc2ccc(Br)cn12)S(=O)(=O)c1cc([N+](=O)[O-])c(F)cc1C` [J120], the IC50 worked out at 24 nM against p110α, 1900 nM on p110β, 1800 nM at p110γ and 470 nM against p110δ. Further, on p110α, the “effect of substitution on PI3Kα potency/selectivity (in words)” value is listed as “did not impact the inhibitory activity for PI3Kα substantially”.
On to `CCN(/N=C/c1cnc2ccc(Br)cn12)S(=O)(=O)c1cc([N+](=O)[O-])c(NCC(N)=O)cc1C` [J163], for which the half-maximal inhibitory concentration (IC50) came to 14 nM on p110α, 2100 nM against p110β, 74 nM on p110γ and 130 nM on p110δ. The “effect of substitution on PI3Kα potency/selectivity (in words)” value at p110α was “did not impact the inhibitory activity for PI3Kα substantially”.
Taken in the same sequence, the figures for `CCOC(=O)CN(/N=C/c1cnc2ccc(Br)cn12)S(=O)(=O)c1cc([N+](=O)[O-])ccc1C` [J43] were 154 nM, 1900 nM, 930 nM, 363 nM and “did not increase potency”.
Turning to `CCN(/N=C/c1cnc2ccc(Br)cn12)S(=O)(=O)c1cc([N+](=O)[O-])c(NCC(=O)O)cc1C` [J159], the concentration for half-maximal inhibition (IC50) was found to be 4 nM on p110α, 1880 nM against p110β, 32 nM at p110γ and 348 nM at p110δ. Further, the “increase of inhibitory activity for PI3Kα” value at p110α (compared to J32) is reported as 3.8 fold.
For the compound `CCN(/N=C/c1cnc2ccc(Br)cn12)S(=O)(=O)c1cc([N+](=O)[O-])c(NCCO)cc1C` [J162], the IC50 is 25 nM on p110α, 2400 nM against p110β, 210 nM on p110γ and 400 nM on p110δ. The “effect of substitution on PI3Kα potency/selectivity (in words)” value at p110α is “did not impact the inhibitory activity for PI3Kα substantially”.
For the compound `CCN(/N=C/c1cnc2ccc(Br)cn12)S(=O)(=O)c1cc([N+](=O)[O-])c(NCC(=O)OC)cc1C` [J161], the values for the IC50 against p110α, on p110γ and at p110δ were 33 nM, 940 nM and 16000 nM, respectively. Besides, the “effect of substitution on PI3Kα potency/selectivity (in words)” value on p110α is recorded as “did not impact the inhibitory activity for PI3Kα substantially”.
For the compound `CCN(/N=C/c1cnc2ccc(Br)cn12)S(=O)(=O)c1cc([N+](=O)[O-])c(O)cc1C` [J129], the half-maximal inhibitory concentration (IC50) against p110α was determined as 20 nM; at p110β it was 510 nM; on p110γ, 150 nM; against p110δ, 66 nM. In addition, the “effect of substitution on PI3Kα potency/selectivity (in words)” value at p110α was “did not impact the inhibitory activity for PI3Kα substantially”.
Taken in the same sequence, the figures for `CCN(/N=C/c1cnc2ccc(Br)cn12)S(=O)(=O)c1cc([N+](=O)[O-])c(NCCOCCO)cc1C` [J158] were 17 nM, 3500 nM, 200 nM, 440 nM and “did not impact the inhibitory activity for PI3Kα substantially”.
Turning to `CCN(/N=C/c1cnc2ccc(Br)cn12)S(=O)(=O)c1cccc([N+](=O)[O-])c1` [J37], the IC50 came to 55 nM against p110α, 3060 nM against p110β, 801 nM against p110γ and 476 nM against p110δ. Besides, at p110α (compared to J32), the “drop/decrease in inhibitory activity for PI3Kα” value is “greater than 3.6 fold”.
`Cc1ccc([N+](=O)[O-])cc1S(=O)(=O)N(C)/N=C/c1cnc2ccc(Br)cn12` [J27, N'-[(1E)-(6-Bromoimidazo [1,2-a]pyridin-3-yl)methylene]-N,2-dimethyl-5-nitrobenzenesulfonohydrazide hydrochloride, reference compound] had an IC50 against p110γ of 75 nM.
With `CCN(/N=C/c1cnc2ccc(Br)cn12)S(=O)(=O)c1cc(C(N)=O)ccc1Cl` [J125], the IC50 against p110α is 76 nM; on p110β, 600 nM; on p110γ, 1000 nM; against p110δ, 38 nM. Further, the “effect of substitution on PI3Kα potency/selectivity (in words)” value at p110α is given as “impaired potency”.
With `CCN(/N=C/c1cnc2ccc(Br)cn12)S(=O)(=O)c1cc([N+](=O)[O-])c(NCCOC)cc1C` [J157], the IC50 against p110α came out at 24 nM; on p110β, 3000 nM; against p110γ it was 1000 nM; against p110δ it was 430 nM. At p110α, the “effect of substitution on PI3Kα potency/selectivity (in words)” value is given as “did not impact the inhibitory activity for PI3Kα substantially”.
Consider `Cc1ccc([N+](=O)[O-])cc1S(=O)(=O)N(Cc1ccccc1)/N=C/c1cnc2ccc(Br)cn12` [J30], for which the IC50 at p110α was found to be 730 nM; against p110β, 6310 nM; against p110γ it was 3160 nM; on p110δ it was 781 nM. The “drop/decrease in inhibitory activity for PI3Kα” value at p110α (compared to J32) lay within 6 to 49 fold.
On to `CCN(/N=C/c1cnc2ccc(Br)cn12)C(=O)c1cc([N+](=O)[O-])ccc1C` [J45], for which the IC50 on p110α came out at 20 nM; against p110β, 75 nM; against p110γ, 132 nM; at p110δ it was 16 nM. At p110α, the “effect of substitution on PI3Kα potency/selectivity (in words)” value was “decreased selectivity for the latter”.

Source of the values: publication PMC3004370, “PI3Kα Inhibitors That Inhibit Metastasis” (Oncotarget, 2010).
